Patent publication US20160153045A1, “Biomarkers for Increased Risk of Drug-Induced 5-Aminosalicylate Nephrotoxicity” (Severe Adverse Event (SAE) Consortium, priority 2014, published 2016)

Legend:
[1] = system: Inflammatory bowel disease patients; conditions: human, in vivo
Excerpt: Methods: Inflammatory bowel disease patients were recruited from 89 sites around the world. Inclusion criteria included normal renal function prior to commencing 5-ASA, ≧50% rise in creatinine any time after starting 5-ASA and physician opinion implicating 5-ASA strong enough to justify drug withdrawal. An adjudication panel identified definite and probable cases from structured case report forms. A genome wide association study was then undertaken with these cases and 4,109 disease controls.
Patient Recruitment: Individual study sites identified and recruited patients with 5-ASA induced nephrotoxicity. This study was open to recruitment at 118 UK research sites (73.8% of the 160 acute NHS trusts in the UK) as well as 45 international sites. In total 77 sites from the UK and 12 sites from outside the UK recruited one or more patients. The protocol was approved by the National Research Ethics Committee South West, Exeter, UK (10/H0203/76) and by all local research and development offices.
Inclusion criteria for patient recruitment required the presence of all of the following: • Patient administered any 5-ASA compound for treatment of inflammatory bowel disease (Crohn's disease, ulcerative colitis or IBD-unclassified) • Patient aged 6 or over • Normal creatinine or estimated glomerular filtration rate (eGFR) prior to first administration of 5-ASA or a creatinine that returned to the normal range after cessation of therapy • Greater than or equal to 50% rise in serum creatinine any time after introduction of 5-ASA • Physician opinion implicating 5-ASA strong enough to justify drug withdrawal, even if temporary
Cases were identified from recruiting sites through clinics and systematic searches of historical records and pathology databases. Gastroenterologists who replied to a 2001-2002 UK survey of 5-ASA induced nephrotoxicity were encouraged to submit cases^10. Clinicians who had submitted adverse drug reaction reports to the Medicines and Healthcare Products Regulatory Agency (MHRA) were invited to consider recruiting patients. Direct advertising to patients through the national patient newsletter was also undertaken. Cases were recruited who developed nephrotoxicity between 1988 and 2013 (73% of cases were diagnosed with renal injury after the year 2000).
Case adjudication: An anonymised case report form detailing demographic, clinical and drug history was completed with the aid of hospital records. Two 6 ml EDTA blood samples were taken at this visit for DNA extraction (BD Vacutainer, USA). The case report forms also requested creatinine levels and their corresponding dates at four time points: 1) at baseline (usually before 5-ASA commenced, but not exclusively), 2) at the recording of first abnormal creatinine value, 3) the worst creatinine value and 4) the best recovered creatinine value. After data collection, the last normal creatinine value before development of renal injury was also obtained, if it was available (92/151 cases), to enable better characterisation of the time period. If a renal biopsy was performed, the anonymised report was requested.
To assess patient eligibility for entry to this study, at least three gastroenterologists and at least one nephrologist reviewed each case for causality at a dedicated in-person adjudication panel meeting. For each case the evidence implicating the 5-ASA as the cause of nephrotoxicity was assessed using an adapted version of the validated Liverpool Adverse Drug Reaction Causality Assessment Tool^16. Patients were classified as definite, probable, possible or unlikely cases of 5-ASA nephrotoxicity based on the adjudicator's independent assessment that the nephrotoxicity was due to 5-ASA treatment. The panel discussed all cases before a final adjudication decision was reached. Only individuals classified as probable or definite cases of 5-ASA induced nephrotoxicity were taken forward for clinical and genetic analyses. […]

[2] = system: patients; conditions: in vivo; cited from earlier work

biopsies with acute interstitial inflammation [1]: 22%
biopsies with acute on chronic interstitial inflammation [1]: 20%
biopsies with only chronic inflammatory changes in the interstitium [1]: 58%
cases with an abnormal creatinine within the first 12 months of treatment [1]: 13%
cases with full recovery of renal function after drug withdrawal [1]: 30%
patients requiring renal replacement therapy [1]: 15 patients
renal biopsies with clear evidence of interstitial nephritis [1]: 57 patients
SMILES: Nc1ccc(O)c(C(=O)O)c1 [5-ASA, 5-aminosalicylate]
definite cases: second episode of kidney injury when re-challenged with the agent [1]: 5 cases
annual risk of nephrotoxicity [2]: 0.26%
